Results published in patent US5684151A, “1-arylsulphonyl, arylcarbonyl and 1-arylphosphonyl-3-phenyl-1,4,5,6-tetrahydropyridazines” (priority 1995, dated 1997).
Read-outs that look alike come from different tables or passages of the source.

What was measured:
[1] = target: T1, progestin receptor from rabbit uterus (Oryctolagus cuniculus, UniProt P06186); assay: Progestin receptor binding (3H-R5020 displacement); settings: rabbit uterine cytosol, 4° C., 18 h, read-out: IC50: Binding affinity for the progestin receptor from rabbit uterus
T1 construct: Cytosolic progestin receptor were obtained by mixing rabbit uterine tissue with a Tris buffer; from tissue; host or cells: rabbit uterus cytosol
Experimental: A progestin initiates a biological response by first binding to a progestin receptor. Affinity for progestin receptors was determined by measuring the ability of compounds to displace a progestin radioligand from those receptors in vitro. Cytosolic progestin receptor were obtained by mixing rabbit uterine tissue with a Tris buffer [0.1M Tris-Hcl, 1 mM Na2 EDTA, 1 mM dithiothreotol, 1 mM sodium molybdate, 1% glycerol, pH 7.4]. The tissue/buffer mixture was homogenized under ice-cold conditions. The homogenate was then centrifuged and the supernatant (cytosol preparation) was decanted and stored at -70° C. and thawed prior to use. The competitive binding assay was performed by mixing ^3 H-R5020, a progestin radioligand, with cytosol preparation and various concentrations of test compounds (prepared in DMSO with a final 5% DMSO concentration). This mixture was then incubated at 4° C. for about 18 hours. Non-specific binding was determined using an unlabelled ligand in excess. After the incubation period, the radioligand bound to receptor was separated from free radioligand using dextran-coated charcoal. The amount of bound radioligand was then determined by liquid scintillation counting. The data were expressed as the concentration of test compound that displaced 50% of the radioligand from the receptor (IC50)
Aspects of the application used in this procedure are described in the following: J. L. McGuire et al., Biochemistry 13, 319, 1974.

[2] = test system: mouse (MC3T3-E1) and human (TE-85) osteoblast-line cells; assay type: cell-based
Text: Compounds of the present invention have utility to treat osteoporosis through enhancement of bone calcification rather than traditional approaches which generally involve inhibition of bone degeneration or resorption. The compounds of the present invention have been evaluated as stimulators of proliferation of osteoblast cell and chick calivaria bone organ culture which is predictive of enhancement of bone mass and bone formation in vivo.
The action of select compounds to stimulate osteoblast growth was measured in culture by estimating the rate of DNA synthesis by the rate of ^3 H-thymidine incorporation into DNA. Only cells undergoing mitosis synthesized new DNA and thus only these cells incorporated the radiolabelled DNA-specific thymidine. The stimulation of the proliferation and differentiation of bone-forming cells, osteoblasts, was a prerequisite for an increase in bone formation and bone mass. The ability of agents to increase osteoblast proliferation and differentiation can be predicted by their action on cultured osteoblast-line cells in vitro. In this test, mouse (MC3T3-E1) and human (TE-85) osteoblast-line cells (American Type Tissue Culture Collection, #CRL 1543, Rockville, Md. cloned by Sudo et al., Koriyama, Japan) were cultured in vitro and the effect of various agents were tested on osteoblast cell proliferation. Cells were harvested from large culture flasks where they were allowed to grow to near confluency using trypsin. The cells were plated into 96 well culture plates, 1600 cells in 100 μL per well in Dulbencos Modified Eagle's Medium (DMEM) with 25 mM HEPES buffer, L-glutamine (584 mg/L); D-glucose (4.5 g/L) supplemented with fetal bovine sera (10%); penicillin (100 units/mL) and streptomycin (100 mcg/mL); sodium pyruvate (10 μM final concentration). The cells were allowed to plate overnight in DMEM containing 10% fetal bovine sera at 37° C. in an atmosphere of 5% CO2/95% air. Following their placement into 96 well culture plates all the osteoblast-line cells, either the MC3T3-E1 or the TE-85 cell lines, were allowed an additional 24 hours preincubation period in media containing only 0.1% fetal bovine sera.
Twenty hours later, a 20 μL aliquot of media containing 0.4 μCi of ^3 H-thymidine was added to each culture well. The cells were then incubated an additional 4 hours. The incubation was terminated by aspirating the media and washing with HBSS (Hank's Balanced Salt Solution). The cells were then treated with 100 μL of 0.5% trypsin and 5.3 mM EDTA for 30 minutes at room temperature. The cells were then aspirated onto glass fiber filter and washed with water. The radioactivity on the filters was quantified by liquid scintillation spectroscopy. The rate of ^3 H-thymidine incorporation into DNA was then utilized as an index of cell proliferation. The results are shown in Table 13 expressed as % times control where the control is 100%. […]

T1 sequence (P06186 whole entry): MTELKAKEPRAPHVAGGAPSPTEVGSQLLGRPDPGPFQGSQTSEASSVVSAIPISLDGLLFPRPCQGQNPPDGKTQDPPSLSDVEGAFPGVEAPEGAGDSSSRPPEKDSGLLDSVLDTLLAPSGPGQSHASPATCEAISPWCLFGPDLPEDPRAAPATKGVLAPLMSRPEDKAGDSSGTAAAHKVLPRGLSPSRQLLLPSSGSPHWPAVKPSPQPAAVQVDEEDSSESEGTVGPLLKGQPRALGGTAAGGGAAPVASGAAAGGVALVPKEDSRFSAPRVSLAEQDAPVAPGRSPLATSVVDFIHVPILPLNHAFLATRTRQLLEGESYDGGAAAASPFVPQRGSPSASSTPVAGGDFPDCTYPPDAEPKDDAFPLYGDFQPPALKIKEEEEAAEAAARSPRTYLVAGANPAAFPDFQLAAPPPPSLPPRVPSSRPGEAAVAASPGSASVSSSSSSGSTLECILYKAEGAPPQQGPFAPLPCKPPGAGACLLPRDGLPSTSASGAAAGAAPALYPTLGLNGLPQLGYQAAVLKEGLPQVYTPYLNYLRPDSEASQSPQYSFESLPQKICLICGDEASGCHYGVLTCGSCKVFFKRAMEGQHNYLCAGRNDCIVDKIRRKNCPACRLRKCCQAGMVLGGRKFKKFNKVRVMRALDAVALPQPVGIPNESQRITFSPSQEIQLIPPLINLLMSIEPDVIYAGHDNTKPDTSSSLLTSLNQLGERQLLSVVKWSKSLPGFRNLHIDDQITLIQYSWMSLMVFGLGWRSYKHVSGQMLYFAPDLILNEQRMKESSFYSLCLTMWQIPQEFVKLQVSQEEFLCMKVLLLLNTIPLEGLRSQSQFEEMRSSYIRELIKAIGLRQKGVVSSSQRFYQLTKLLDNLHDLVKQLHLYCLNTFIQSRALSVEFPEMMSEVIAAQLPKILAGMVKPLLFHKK

Row | SMILES | IC50 [1] | Osteoblast Cell Proliferation, 3H-thymidine incorporation vs control (100%) ([2]; 10^-6) | Osteoblast Cell Proliferation, 3H-thymidine incorporation vs control (100%) ([2]; 10^-7) | Osteoblast Cell Proliferation, 3H-thymidine incorporation vs control (100%) ([2]; 10^-8) | Osteoblast Cell Proliferation, 3H-thymidine incorporation vs control (100%) ([2]; 10^-9) | Osteoblast Cell Proliferation, 3H-thymidine incorporation vs control (100%) ([2]; 10^-10)
1 | Cc1ccc(S(=O)(=O)N2CCCC(c3ccc4c(c3)CCCC4)=N2)cc1 [Compound 87] | 82.2 nM | 120% | 115% | 125% | 117% | 127%
2 | O=S(=O)(c1cc(Cl)ccc1Cl)N1CCCC(c2ccc3c(c2)CCCC3)=N1 [Compound 89] | 21.6 nM | 115% | 97% | 113% | 106% | 98%
3 | Cc1ccc(S(=O)(=O)N2CCCC(c3ccccc3)=N2)cc1 [Compound 2] | 3000 nM | 105% | 119% | 99% | 91% | 77%
4 | Cc1ccc(S(=O)(=O)N2N=C(c3ccccc3)CC3CCCC32)cc1 (stereo not drawn) [Compound 156, 4,4a,5,6,7,7a-Hexahydro-3-phenyl-1-(4-methylbenzenesulfonyl)-1H-cyclopenta[c]pyridazine] | 1000 nM | 127% | 124% | 126% | 136% | 183%
5 | O=S(=O)(c1ccc(Br)cc1)N1CCCC(c2ccc(Cl)cc2)=N1 [Compound 13] | 9 nM | 88% | 109% | 114% | 109% | 152%
6 | O=S(=O)(/C=C/c1ccccc1)N1CCCC(c2ccc(Cl)c(Cl)c2)=N1 [Compound 167] | 5.93 nM | 126% | 109% | 136% | 144% | 165%
7 | O=C(c1cccc(Cl)c1)N1CCCC(c2ccc(Cl)cc2)=N1 [Compound 199] | 100000 nM | 105% | 104% | 96% | 83% | 61%
8 | O=C(c1ccc(Cl)c(Cl)c1)N1CCCC(c2ccc(Cl)c(Cl)c2)=N1 [Compound 216] | 103 nM | 105% | 108% | 105% | 96% | 100%
9 | CC(C)OP(=O)(c1ccccc1)N1CCCC(c2ccc(Cl)c(Cl)c2)=N1 (stereo not drawn) [Compound 256] | 95.5 nM | 97% | 100% | 104% | 128% | 116%
10 | COc1ccc(C2=NN(S(=O)(=O)c3ccccc3)CCC2)cc1 [Compound 64] | 550 nM | 116% | 115% | 121% | 128% | 137%
11 | O=P(OC1CCCC1)(c1ccccc1)N1CCCC(c2ccc(Cl)c(Cl)c2)=N1 (stereo not drawn) [Compound 257] | 300 nM | 86% | 114% | 122% | 112% | 114%
12 | O=C(c1ccc(Cl)cc1)N1CCCC(c2ccc(Cl)cc2)=N1 [Compound 193] | 10000 nM | 107% | 161% | 162% | 190% | 208%
13 | O=[N+]([O-])c1ccc(S(=O)(=O)N2CCCC(c3ccc(Cl)c(Cl)c3)=N2)cc1 [Compound 38] | 5.29 nM | 76% | 73% | 54% | 49% | 37%
14 | O=S(=O)(c1ccc(Cl)cc1)N1CCCC(c2ccc3c(c2)CCCC3)=N1 [Compound 88] | 10.2 nM | 97% | 109% | 89% | 74% | 62%
15 | O=S(=O)(/C=C/c1ccc2ccccc2c1)N1CCCC(c2ccc(Cl)c(C(F)(F)F)c2)=N1 [Compound 177] | 528 nM | – | – | – | – | –
16 | CN(C)c1ccc(C2=NN(S(=O)(=O)c3ccc(I)cc3)CCC2)cc1 [Compound 209, 1-(4-Iodobenzenesulfonyl)-3-(4-dimethylaminophenyl)-1,4,5,6-tetrahydropyridazine] | 117 nM | – | – | – | – | –
17 | O=[N+]([O-])c1ccc(S(=O)(=O)N2CCCC(c3ccc(F)cc3)=N2)c([N+](=O)[O-])c1 [Compound 23] | 3000 nM | – | – | – | – | –
